Experimental data: US20260013504A1, “HERBICIDAL MIXTURE, HERBICIDAL COMPOSITION, METHOD, USE, AND KITS FOR CONTROLLING UNDESIRABLE VEGETATION” (ADAMA AGAN LTD., priority 2022, published 2026)

What was measured:
Assay type in all cases: in vivo
[1] = system: Bromus japonicus; test: Pot experiment, soil treatment, control of Bromus japonicus (fresh weight, Colby); settings: mixtures: both AIs at these rates, after 35 days
Protocol: (§1) Referring to an article of Colby, S. R. i.e., Calculation of the synergistic and antagonistic response of herbicide combinations.
(§2) E0-E value is calculated to evaluate the combined effect of pyroxasulfone and the second herbicide selected from the group consisting of fluorochloridone, aclonifen, diflufenican and terbutryn on the selected weeds.
(§3) In this Example, the herbicidal activity of treatments by a mixture of pyroxasulfone and the second herbicide selected from the group consisting of fluorochloridone, aclonifen, diflufenican and terbutryn for controlling Aegilops tauschii was investigated by a pot experiment. This Example was carried out in accordance with “NY/T 1155.4-2006 Guidelines for Indoor Bioassay Tests of Pesticides, Herbicides Part 4: Activity Determination Tests, Stem and Leaf Spray Method”. • Source of the agrochemicals tested were: • Pyroxasulfone: pyroxasulfone (850g/Kg, WG) from Adama Agan LTD. • Fluorochloridone: fluorochloridone (250 g/L, EC) from Adama Agan LTD. • Aclonifen: aclonifen (600 g/L, SC) from Adama Agan LTD. • Diflufenican: diflufenican (50g/Kg, WP) from Bayer. • Terbutryn: terbutryn (50g/Kg, SC) from Zhejiang Zhongshan Chemical Industry Group Co., Ltd. • Cultivation of test materials: The test soil was formed by mixing the 20 cm layer loam on the ground surface and the culture medium in a ratio of 3:1 as cultivation soil. Weeds were cultivated in an artificial climate chamber. The daytime and nighttime temperatures were set at 22° C. and 19° C., respectively, and the illumination was set at daytime: dark time 12h: 12h.
(§4) A certain amount of Aegilops tauschii seeds were sown in a plastic pot with a diameter of 9 cm, covering with 1-2 mm soil, and putting them in an enamel dish filled with water. The bottom infiltration method was used to water them, the agrochemicals tested in this Example were applied on the second day after sowing Aegilops tauschii seeds.
(§5) Spraying treatment: ASS-4 automatic control spraying system with a fan-shaped nozzle was used indoors to spray the agrochemicals, the running speed was adjusted based on nozzle pressure, flow rate, etc. to spray 50 mL of liquid of agrochemicals on the actual spray area of 1.1 m2 (equivalent to 30 liters per mu), arranging the plastic pots to be processed on the spraying table evenly, and spraying evenly. The spraying pressure was 0.35 MPa, and the flow rate of the fan-shaped nozzle was 800 mL/min, spraying in order from low dosage to high dosage. Each treatment was repeated 3 times. After spraying, the plastic pots were dried for one day, placed in an artificial climate chamber, and watered regularly to keep moist.
(§6) Weed investigation method and time: after applying the agrochemicals, the symptoms of weed damage (such as growth inhibition, chlorosis, deformity, etc.) were recorded in detail. After 35 days, the fresh weight of aerial part of the weeds in each treatment was weighed, and the measured fresh weight inhibition rate and the measured fresh weight survival rate for each treatment were calculated according to the following equations: […]
Example 3 was conducted in substantially the same way as Example 1, except that Bromus japonicus was used instead of Aegilops tauschii.

[2] = system: Lithospermum arvense; test: Pot experiment, soil treatment, control of Lithospermum arvense (fresh weight, Colby)
Protocol: as §1, §2, §3, §4, §5, §6
Example 5 was conducted substantially the same way as Example 1, except that Lithospermum arvense was used instead of Aegilops tauschii.

[3] = system: Lolium multiflorum Lamk; test: Pot experiment, soil treatment, control of Lolium multiflorum Lamk (fresh weight, Colby); settings: mixtures: both AIs at these rates, after 35 days
Protocol: as §1, §2, §3, §4, §5, §6
Example 2 was conducted in substantially the same way as Example 1, except that Lolium multiflorum Lamk was used instead of Aegilops tauschii.

[4] = system: Aegilops tauschii; test: Pot experiment, soil treatment, control of Aegilops tauschii (fresh weight, Colby); settings: mixtures: both AIs at these rates, after 35 days
Text: as §1
E0 is the theoretical fresh weight survival rate for the mixture of pyroxasulfone and the second herbicide selected from the group consisting of fluorochloridone, aclonifen, diflufenican and terbutryn;
X is the measured fresh weight survival rate for pyroxasulfone used alone at the same dosage as that in the mixture;
Y is the measured fresh weight survival rate for the second herbicide selected from the group consisting of fluorochloridone, aclonifen, diflufenican and terbutryn used alone at the same dosage as that in the mixture;
E is the measured fresh weight survival rate for the mixture of pyroxasulfone and the second herbicide selected from the group consisting of fluorochloridone, aclonifen, diflufenican and terbutryn.
as §2, §3, §4, §5, §6

[5] = system: Galium aparine; test: Pot experiment, soil treatment, control of Galium aparine (fresh weight, Colby)
Protocol: as §1, §2, §3, §4, §5, §6
Example 4 was conducted substantially the same way as Example 1, except that Galium aparine was used instead of Aegilops tauschii.

[6] = system: Solanum nigrum; test: Pot experiment (glass greenhouse), soil treatment, control of Solanum nigrum (fresh weight, Colby)
Protocol: as §1, §2, §3, §4, §5, §6
Example 6 was substantially conducted in the same as Example 1, except that (1) Solanum nigrum was used instead of Aegilops tauschii, (2) in “Cultivation of test materials” part, Solanum nigrum was cultivated in a glass greenhouse instead of an artificial climate chamber at a temperature of 25 to 33° C. with a natural illumination, and (3) in “Spraying treatment” part, after spraying and drying, the plastic pots were placed in a glass greenhouse instead of an artificial climate chamber.

[7] = g ai/ha: pyroxasulfone 11.25, fluorochloridone 31.25, aclonifen 150, diflufenican 14.0625, terbutryn 140.625
[8] = g ai/ha: pyroxasulfone 22.5, fluorochloridone 62.5, aclonifen 300, diflufenican 28.125, terbutryn 281.25
[9] = g ai/ha: pyroxasulfone 45, fluorochloridone 125, aclonifen 600, diflufenican 56.25, terbutryn 562.5
[10] = g ai/ha: pyroxasulfone 90, fluorochloridone 250, aclonifen 1200, diflufenican 112.5, terbutryn 1125
[11] = g ai/ha: pyroxasulfone 180, fluorochloridone 500, aclonifen 2400, diflufenican 225, terbutryn 2250
[12] = g ai/ha: pyroxasulfone 360, fluorochloridone 1000, aclonifen 4800, diflufenican 450, terbutryn 4500

## Nc1c([N+](=O)[O-])ccc(Oc2ccccc2)c1Cl [aclonifen, 2-chloro-6-nitrio-3-phenoxyaniline]
[1]; [7]
  Measured fresh weight inhibition rate (%): 45.4%
  Measured fresh weight survival rate (%) - E: 54.6%
[1]; [8]
  Measured fresh weight inhibition rate (%): 86.6%
  Measured fresh weight survival rate (%) - E: 13.4%
[1]; [9]
  Measured fresh weight inhibition rate (%): 100.0%
  Measured fresh weight survival rate (%) - E: 0.0%
[1]; [10]
  Measured fresh weight inhibition rate (%): 100.0%
  Measured fresh weight survival rate (%) - E: 0.0%
[1]; [11]
  Measured fresh weight inhibition rate (%): 100.0%
  Measured fresh weight survival rate (%) - E: 0.0%
[2]; 150 g ai/ha
  Measured fresh weight survival rate (%) - E: 43.5%
[2]; 300 g ai/ha
  Measured fresh weight survival rate (%) - E: 13.0%
[2]; 600 g ai/ha
  Measured fresh weight survival rate (%) - E: 1.4%
[2]; 1200 g ai/ha
  Measured fresh weight survival rate (%) - E: 0.0%
[2]; 2400 g ai/ha
  Measured fresh weight survival rate (%) - E: 0.0%
[2]; Buglossoides arvensis, soil, 150 g ai/ha, read-out: Measured fresh weight inhibition rate (%)
  inhibition at 150 g/ha: 56.5%
[2]; Buglossoides arvensis, soil, 300 g ai/ha, read-out: Measured fresh weight inhibition rate (%)
  inhibition at 300 g/ha: 87%
[2]; Buglossoides arvensis, soil, 600 g ai/ha, read-out: Measured fresh weight inhibition rate (%)
  inhibition at 600 g/ha: 98.6%
[2]; Buglossoides arvensis, soil, 1200 g ai/ha, read-out: Measured fresh weight inhibition rate (%)
  inhibition at 1200 g/ha: 100%
[2]; Buglossoides arvensis, soil, 2400 g ai/ha, read-out: Measured fresh weight inhibition rate (%)
  inhibition at 2400 g/ha: 100%
[3]; [7]
  Measured fresh weight inhibition rate (%): 89.1%
  Measured fresh weight survival rate (%) - E: 10.9%
[3]; [8]
  Measured fresh weight inhibition rate (%): 96.4%
  Measured fresh weight survival rate (%) - E: 3.6%
[3]; [9]
  Measured fresh weight inhibition rate (%): 99.5%
  Measured fresh weight survival rate (%) - E: 0.5%
[3]; [10]
  Measured fresh weight inhibition rate (%): 100.0%
  Measured fresh weight survival rate (%) - E: 0.0%
[3]; [11]
  Measured fresh weight inhibition rate (%): 100.0%
  Measured fresh weight survival rate (%) - E: 0.0%
[3]; [12]
  Measured fresh weight inhibition rate (%): 100.0%
  Measured fresh weight survival rate (%) - E: 0.0%
[4]; [7]
  Measured fresh weight inhibition rate (%): 6.1%
  Measured fresh weight survival rate (%) - E: 93.9%
[4]; [8]
  Measured fresh weight inhibition rate (%): 25.0%
  Measured fresh weight survival rate (%) - E: 75.0%
[4]; [9]
  Measured fresh weight inhibition rate (%): 26.2%
  Measured fresh weight survival rate (%) - E: 73.8%
[4]; [10]
  Measured fresh weight inhibition rate (%): 70.1%
  Measured fresh weight survival rate (%) - E: 29.9%
[4]; [11]
  Measured fresh weight inhibition rate (%): 74.4%
  Measured fresh weight survival rate (%) - E: 25.6%
[4]; [12]
  Measured fresh weight inhibition rate (%): 97.6%
  Measured fresh weight survival rate (%) - E: 2.4%
[5]; 150 g ai/ha
  Measured fresh weight survival rate (%) - E: 79.5%
[5]; 300 g ai/ha
  Measured fresh weight survival rate (%) - E: 63.0%
[5]; 600 g ai/ha
  Measured fresh weight survival rate (%) - E: 9.6%
[5]; 1200 g ai/ha
  Measured fresh weight survival rate (%) - E: 0.0%
[5]; 2400 g ai/ha
  Measured fresh weight survival rate (%) - E: 0.0%
[5]; Galium aparine, soil, 150 g ai/ha, read-out: Measured fresh weight inhibition rate (%)
  inhibition at 150 g/ha: 20.5%
[5]; Galium aparine, soil, 300 g ai/ha, read-out: Measured fresh weight inhibition rate (%)
  inhibition at 300 g/ha: 37%
[5]; Galium aparine, soil, 600 g ai/ha, read-out: Measured fresh weight inhibition rate (%)
  inhibition at 600 g/ha: 90.4%
[5]; Galium aparine, soil, 1200 g ai/ha, read-out: Measured fresh weight inhibition rate (%)
  inhibition at 1200 g/ha: 100%
[5]; Galium aparine, soil, 2400 g ai/ha, read-out: Measured fresh weight inhibition rate (%)
  inhibition at 2400 g/ha: 100%
[6]; 150 g ai/ha
  Measured fresh weight survival rate (%) - E: 87.1%
[6]; 300 g ai/ha
  Measured fresh weight survival rate (%) - E: 82.7%
[6]; 600 g ai/ha
  Measured fresh weight survival rate (%) - E: 69.4%
[6]; 1200 g ai/ha
  Measured fresh weight survival rate (%) - E: 56.9%
[6]; 2400 g ai/ha
  Measured fresh weight survival rate (%) - E: 26.3%
[6]; Solanum nigrum, soil, 150 g ai/ha, read-out: Measured fresh weight inhibition rate (%)
  inhibition at 150 g/ha: 12.9%
[6]; Solanum nigrum, soil, 300 g ai/ha, read-out: Measured fresh weight inhibition rate (%)
  inhibition at 300 g/ha: 17.3%
[6]; Solanum nigrum, soil, 600 g ai/ha, read-out: Measured fresh weight inhibition rate (%)
  inhibition at 600 g/ha: 30.6%
[6]; Solanum nigrum, soil, 1200 g ai/ha, read-out: Measured fresh weight inhibition rate (%)
  inhibition at 1200 g/ha: 43.1%
[6]; Solanum nigrum, soil, 2400 g ai/ha, read-out: Measured fresh weight inhibition rate (%)
  inhibition at 2400 g/ha: 73.7%
